Legend:
Type in all cases: cell-based, human
[1] = tested on: GLI3; test: Western blot of full-length versus truncated repressor GLI3; conditions: cultures maintained in 3 and 6 μM CHIR during PM/SHH exposure, day 6
Protocol: To begin, we sequentially differentiated H9 hESCs in E6 media for 1 day, and FGF8b (200 ng/mL) for 1 day, and FGF8b and CHIR (3 μM) for 2 days to generate cervical neuromesoderm (FIGS. 5A-5B). Then, we screened the effects of CHIR, PM, and SHH treatment on NKX6.1^+/PAX6^+/OLIG2^+ motor neuron progenitor induction while transitioning to media containing 1 μM RA (FIGS. 5A-5D). Prior to the addition of RA, NKX6.1 was expressed in the cervical neuromesodermal state at day 4 (80±18% NKX6.1^+; data not shown), likely due to the CHIR-induced Wnt/β-catenin signaling (FIGS. 4A-4H). Transitioning the neuromesodermal progenitors to RA-containing media for 2 days induced HOXB4^+/HOXC6^+/HOXC9^−/HOXD10^−/PAX6^+ cervical neuroectoderm in all conditions (FIGS. 5B-5C), as expected. However, without co-activation of SHH signaling by PM or SHH, NKX6.1 expression was quickly lost by day 6 (97±1% PAX6^+, 17±3% NKX6.1^+) (FIG. 5C). […] To bolster this claim, we also analyzed the abundance of full-length GLI3 versus its truncated repressor form by western blot. […]
Cells were washed with cold PBS, harvested with accutase, and pelleted by centrifugation. […] Immunostained bands were detected using the SuperSignal West Pico Chemiluminescent Substrate kit (Thermo Fisher Scientific). […]

[2] = tested on: H9 ishcat2 hESC line; test: Doxycycline-inducible shRNA knockdown of β-catenin (CTNNB1) during motor neuron differentiation; conditions: H9 ishcat2, 3 days shRNA CTNNB1 knockdown upstream of CHIR 4 μM, day 3
Protocol: In the ventral neural tube, SHH signaling generates OLIG2^+ motor neuron progenitors that subsequently mature into post-mitotic ISL1^+ and/or HB9^+ motor neurons. To probe the role of Wnt/β-catenin signaling during this process in vitro, we utilized the H9 ishcat2 hESC line, which harbors a doxycycline-inducible shRNA against CTNNB1.
Similarly, we induced β-catenin knockdown while differentiating the hESCs into motor neurons via E6 neural induction with RA (1 μM), purmorphamine (PM, a small molecule agonist of sonic hedgehog signaling; 100 nM), and neurotrophic factor treatment, as previously described (FIG. 3A).
NKX6.1 is the earliest expressed marker in the motor neuron development cascade in vivo, so we examined its expression in response to Wnt/β-catenin, RA, and SHH signaling during hPSC motor neuron differentiation. H9 hESCs were differentiated in E6 medium for 2 days to initiate neural fate acquisition34 and then treated with combinations of RA, purmorphamine (PM, a small molecule agonist of SHH signaling), and CHIR for 24 h (FIG. 4A). […] Using the H9 ishcat2 line, we observed that CHIR-mediated induction of NKX6.1 was β-catenin-dependent, as the optimal 3 days of shRNA-mediated CTNNB1 knockdown upstream of CHIR treatment was required to maximally reduce NKX6.1 induction to 44±1% (FIG. 4E). The correlation between NKX6.1 knockdown and days of doxycycline treatment was presumably due to the time delay for shRNA synthesis and subsequent gene knockdown in Tet-on systems. […] Exogenously added WNT3A (200 ng/mL) could also induce NKX6.1 expression (60±14%) (FIG. 4G), providing further evidence for the involvement of Wnt/β-catenin signaling in this process. In contrast, simultaneous treatment with CHIR and BMP4 (200 ng/mL), a dorsal patterning factor, reduced the expression of NKX6.1 from 91±1% to 68±2% (FIG. 4H).
hESCs were maintained on Matrigel (BD Biosciences) in E8 medium but with 10-fold lower insulin concentration (2 mg/L). Cell lines used in this study were H9 hESCs (passage 25-45) and H9 ishcat2 hESCs (passage 35-45). […]

[3] = tested on: GLI1, GLI2, GLI3; test: qPCR of GLI transcription factors in day 6 cultures; conditions: 6 μM CHIR maintained during RA and PM/SHH exposure, day 6, versus 0 μM CHIR
Protocol: To begin, we sequentially differentiated H9 hESCs in E6 media for 1 day, and FGF8b (200 ng/mL) for 1 day, and FGF8b and CHIR (3 μM) for 2 days to generate cervical neuromesoderm (FIGS. 5A-5B). Then, we screened the effects of CHIR, PM, and SHH treatment on NKX6.1^+/PAX6^+/OLIG2^+ motor neuron progenitor induction while transitioning to media containing 1 μM RA (FIGS. 5A-5D). Prior to the addition of RA, NKX6.1 was expressed in the cervical neuromesodermal state at day 4 (80±18% NKX6.1^+; data not shown), likely due to the CHIR-induced Wnt/β-catenin signaling (FIGS. 4A-4H). Transitioning the neuromesodermal progenitors to RA-containing media for 2 days induced HOXB4^+/HOXC6^+/HOXC9^−/HOXD10^−/PAX6^+ cervical neuroectoderm in all conditions (FIGS. 5B-5C), as expected. However, without co-activation of SHH signaling by PM or SHH, NKX6.1 expression was quickly lost by day 6 (97±1% PAX6^+, 17±3% NKX6.1^+) (FIG. 5C). […] To bolster this claim, we also analyzed the abundance of full-length GLI3 versus its truncated repressor form by western blot. […] Thus, Wnt/β-catenin signaling is necessary to induce ventral identity, but its continuous activation during OLIG2 induction by SHH signaling is detrimental to motor neuron differentiation, possibly due to activation of the GLI3 repressor.
Thoracic identity was reached after an additional 24 h. Then, to reach the lumbosacral level, cells were given 30 ng/ml GDF11 and 1 μM DM for an additional 48 h. For neuroectoderm induction and generation of OLIG2^+ progenitors, FGF8b was removed at the designated time points and the concentration of CHIR was increased for 6 h as described in the text, followed by a transition to media containing RA, PM, and SHH for a period of 48 h. […]

## Cc1c[nH]c(-c2cnc(NCCNc3ccc(C#N)cn3)nc2-c2ccc(Cl)cc2Cl)n1 [CHIR, CHIR99021]
[1]
  GLI3 truncated repressor form level (western blot): increased levels of the GLI3 truncated repressor form
[2]
  NKX6.1 induction (flow cytometry): 44±1%
[3]
  decrease in GLI1 expression (qPCR): > 8 fold
  decrease in GLI2 expression (qPCR): > 4 fold
  increase in GLI3 expression (qPCR): ~2 fold

— patent publication US12084680B2, “Methods for efficient derivation of human motor neurons from diverse spinal regions” (Wisconsin Alumni Research Foundation, priority 2016, dated 2024)
